# Measured values from patent US20260125382A1, “COMPOUNDS FOR INHIBITING OR DEGRADING CDK2 AND/OR CDK9 AND MEDICINAL USE THEREOF” (KOREA RESEARCH INSTITUTE OF CHEMICAL TECHNOLOGY, priority 2022, published 2026).
# Assays:
# CDK2 = target: T1, CDK2 (Homo sapiens, UniProt P24941); assay: CDK protein degradation activity (Western blotting), CDK2; type: cell-based; conditions: MDA-MB-231 cells, 16 hours, Western blot
# T1 construct: endogenous in cells; host or cells: MDA-MB-231
# In short: (§1)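 MDA-MB-231 cells treated 16 h with compound at 100 nM, 1 μM or 10 μM, with DMSO as control. Lysates run on SDS-PAGE and immunoblotted for CDK2, CDK9 and tubulin; band levels quantified by densitometry.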
# CDK9 = target: T2, CDK9 (Homo sapiens, UniProt P50750); assay: CDK protein degradation activity (Western blotting), CDK9; type: cell-based; conditions: MDA-MB-231 cells, 16 hours, Western blot
# T2 construct: endogenous in cells; host or cells: MDA-MB-231
# T2 sequence (P50750 whole entry): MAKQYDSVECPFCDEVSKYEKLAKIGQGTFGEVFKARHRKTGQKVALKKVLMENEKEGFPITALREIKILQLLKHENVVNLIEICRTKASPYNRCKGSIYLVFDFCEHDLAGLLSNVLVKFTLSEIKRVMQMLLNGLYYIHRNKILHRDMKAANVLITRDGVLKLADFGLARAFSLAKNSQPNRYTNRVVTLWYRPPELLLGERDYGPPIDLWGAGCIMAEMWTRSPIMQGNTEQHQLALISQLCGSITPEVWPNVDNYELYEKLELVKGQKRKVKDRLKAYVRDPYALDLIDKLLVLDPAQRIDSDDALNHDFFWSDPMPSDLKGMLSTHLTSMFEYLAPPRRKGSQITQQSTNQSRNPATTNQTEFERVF
# In short: as §1
Structure (SMILES),Enzyme degradation CDK2 (% remaining) @ 0.1 μM (CDK2),Enzyme degradation CDK2 (% remaining) @ 1 μM (CDK2),Enzyme degradation CDK2 (% remaining) @ 10 μM (CDK2),Enzyme degradation CDK9 (% remaining) @ 0.1 μM (CDK9) [%],Enzyme degradation CDK9 (% remaining) @ 1 μM (CDK9) [%],Enzyme degradation CDK9 (% remaining) @ 10 μM (CDK9) [%]
"O=C1CC[C@H](N2C(=O)c3cccc(N4CCC(CN5CCN(c6ccc(Nc7ncnc8c7ncn8C7CC(NC(=O)Cc8ccccc8)C7)cc6)CC5)CC4)c3C2=O)C(=O)N1 (stereo partly drawn) [Compound 178, N-((1s,3s)-3-(6-((4-(4-((1-(2-(2,6-dioxopiperidin-3-yl)-1,3-dioxoisoindolin-4-yl)piperidin-4-yl)methyl)piperazin-1-yl)phenyl)amino)-9H-purin-9-yl)cyclobutyl)-2-phenylacetamide]",30%,20%,20%,10,0,0
"O=C1CCC(N2C(=O)c3cccc(N4CCC(CN5CCC(CNc6ncnc7c6ncn7[C@H]6C[C@@H](NC(=O)Cc7ccccc7)C6)CC5)CC4)c3C2=O)C(=O)N1 (stereo partly drawn) [Compound 180, N-((1s,3s)-3-(6-(((1-((1-(2-(2,6-dioxopiperidin-3-yl)-1,3-dioxoisoindolin-4-yl)piperidin-4-yl)methyl)piperidin-4-yl)methyl)amino)-9H-purin-9-yl)cyclobutyl)-2-phenylacetamide]",30/30/30%,30/30/30%,30/30/30%,20,80,0
"O=C1CC[C@H](N2C(=O)c3ccc(N4CCC(CN5CCC(CNc6ncnc7c6ncn7C6CC(NC(=O)Cc7ccccc7)C6)CC5)CC4)cc3C2=O)C(=O)N1 (stereo partly drawn) [Compound 181, N-((1s,3s)-3-(6-(((1-((1-(2-(2,6-dioxopiperidin-3-yl)-1,3-dioxoisoindolin-5-yl)piperidin-4-yl)methyl)piperidin-4-yl)methyl)amino)-9H-purin-9-yl)cyclobutyl)-2-phenylacetamide]",40%,30%,50%,50,40,0

# Continued, values first:
Enzyme degradation CDK2 (% remaining) @ 0.1 μM (CDK2),Enzyme degradation CDK2 (% remaining) @ 1 μM (CDK2),Enzyme degradation CDK2 (% remaining) @ 10 μM (CDK2),Enzyme degradation CDK9 (% remaining) @ 0.1 μM (CDK9) [%],Enzyme degradation CDK9 (% remaining) @ 1 μM (CDK9) [%],Enzyme degradation CDK9 (% remaining) @ 10 μM (CDK9) [%],Structure (SMILES)
10%,0%,0%,10,0,0,"O=C1CC[C@H](N2C(=O)c3ccc(N4CCC(CN5CCN(c6ccc(Nc7ncnc8c7ncn8[C@H]7C[C@@H](NC(=O)Cc8ccccc8)C7)cc6)CC5)CC4)cc3C2=O)C(=O)N1 [Compound 179, N-((1s,3s)-3-(6-((4-(4-((1-(2-(2,6-dioxopiperidin-3-yl)-1,3-dioxoisoindolin-5-yl)piperidin-4-yl)methyl)piperazin-1-yl)phenyl)amino)-9H-purin-9-yl)cyclobutyl)-2-phenylacetamide]"
70%,50%,50%,20,10,0,"O=C1CC[C@H](N2C(=O)c3cccc(OCC(=O)N4CCC(CN5CCC(CNc6ncnc7c6ncn7C6CC(NC(=O)Cc7ccccc7)C6)CC5)CC4)c3C2=O)C(=O)N1 (stereo partly drawn) [Compound 182, N-((1s,3s)-3-(6-(((1-((1-(2-((2-(2,6-dioxopiperidin-3-yl)-1,3-dioxoisoindolin-4-yl)oxy)acetyl)piperidin-4-yl)methyl)piperidin-4-yl)methyl)amino)-9H-purin-9-yl)cyclobutyl)-2-phenylacetamide]"
